Values after ≈ are worked out from the molar mass of the structure shown. Where two headings read alike, the source gives them in different places.
Columns and labels:
[1] = system: S. aureus wild type strain (ATCC 25923); test: Antibiotic assay (resazurin, Example 1), S. aureus wild type; type: cell-based, Staphylococcus aureus; details: Staphylococcus aureus, ATCC25923, S. aureus WT ATCC 25923
Protocol: (§1) Bacteria Strain. […] The MRSA were obtained as further described below.
(§2) Antibiotic agents. Cyprofloxacin and erythromycin were provided by Sigma-Aldrich. Gentamicin sulfate and vancomycin hydrochloride were provided by Calbiochem.
(§3) MRSA. Ten (10) strains of MRSA obtained as described above were tested along with an S. aureus wild type (WT) strain (ATCC25923).

S. epidermidis = test: Antibiotic assay (resazurin, Example 1), S. epidermidis strains; details: Staphylococcus epidermidis
Corynebacterium jeikeium = test: Antibiotic assay (resazurin, Example 1), Corynebacterium jeikeium; type: cell-based; details: Corynebacterium jeikeium, Coryne. jeikeium 14139
Protocol: as §1, §2
(§4) Five additional strains were tested: Streptococcus pneumoniae, Streptococcus agalactiae, Streptococcus pyogenes, Enterococcus faecalis and Corynebacterium jeikeium.

S. aureus = test: Antibiotic assay (resazurin, Example 1), S. aureus strains of Table 3; type: cell-based, Staphylococcus aureus; details: for IC50: read-out: IC50; for MIC: read-out: Minimum Inhibitory Concentration (MIC)
Source text: as §1, §2

Streptococcus agalactiae = test: Antibiotic assay (resazurin, Example 1), Streptococcus agalactiae; type: cell-based; details: for IC50: read-out: IC50
Protocol: as §1, §2, §4

[2] = system: methicillin-resistant Staphylococcus aureus (MRSA) strains; test: Antibiotic assay (resazurin, Example 1), MRSA strains; type: cell-based
Source text: as §1, §2
Isolation and identification of methicillin-resistant Staphylococcus aureus (MRSA) strains. From March 2007 to March 2008, 35 screening swabs from nares (n=31), throat (n=3), Groin pus (n=1) were obtained from patients hospitalized at Chicoutimi hospital. Identification of S. aureus was performed using the Slidex Staph-Kit (bioMerieux Vitek, Inc., Hazelwood, Mo.) according to the manufacturer's instructions. Quality control was performed with MRSA strain ATCC 43300 and S. aureus strain ATCC 25923. In addition, S. aureus profile was determined with API Staph test strip with bacterial suspension of saline McFarland of 0.5 (bioMerieux, Durham, N.C.) according to the manufacturer's protocol. API Staph strips were held for 24 h before the results were read. A latex agglutination (SLIDEX) test detecting methicilin resistance in Staphylococci based on the production of low-affinity PBP2a, which is encoded by the mecA gene was performed on all strains. An antibiogram was also performed to confirm the identification of MRSA strains using disk diffusion test.
Antibiotic susceptibility testing using disk diffusion method. The antimicrobial activity of different classes of antibiotics of the potential MRSA was determined by diffusion method (Kirby-Bauer) as described by NCCLS. The antibiotics tested included: penicillin (10 units), amoxicillin/clavulanic acid (20/10 μg), ciprofloxacin (5 μg), moxifloxacin (5 μg), levofloxacin (5 μg), clindamycin (15 μg), erythromycin (15 μg), cefoxitin (30 μg), linezolid (30 μg), trimethoprim/sulfomethoxazole (1.25/23.75 μg), rifampicin (5 μg), gentamicin (10 μg) and vancomycin (30 μg). The agar medium had pH 7.2 to 7.4 before inoculing potentiel MRSA. The antibiotics were maintained at 8° C. or lower −14° C. according to manufacturer's recommendations. The pure culture was inoculated on a non-selective plate for 18-24 h. Each colony was collected with a wire loop and transfered the growth to a tube containing 4 to 5 mL of a tryptic-soy broth. The inoculum density was standarized with BaSO4 using 0.5 McFarland standard. All strains were incubated at 37° C. until it achieves or exceeds the turbidity of 0.5 McFarland standard. Inoculation of the dried surface (Muller-Hinton agar plate) by streaking the swab over the entire sterile agar surface. This procedure was repeated two more times. After 15 min, the appropriate disk were applied on the surface with a sterile forceps. The inverted plates was placed in a incubator at 37° C./air/16 to 18 h or 24 h for vancomycin. The inhibition zones were measured with a millimetric ruler. Interpretation of zone sizes by references of the manufacturer. Quality control organisms used were ATCC strains number 25923.
as §3

Enterococcus faecalis = test: Antibiotic assay (resazurin, Example 1), Enterococcus faecalis; type: cell-based; details: for IC50: read-out: IC50
Protocol: as §1, §2, §4

Streptococcus pyogenes = test: Antibiotic assay (resazurin, Example 1), Streptococcus pyogenes; type: cell-based; details: Streptococcus pyogenes; for IC50: read-out: IC50; for MIC: read-out: Minimum Inhibitory Concentration (MIC)
Protocol: as §1, §2, §4

[3] = read-out: Minimum Inhibitory Concentration (MIC)
[4] = Staphylococcus aureus, S. aureus 14094

## O=C(O)c1cn(C2CC2)c2cc(N3CCNCC3)c(F)cc2c1=O [Ciprofloxacin, reference compound]
[1]; read-out: IC50
  IC50: 0.4 ± 0.2 µM
[1]; [3]
  MIC: 47.9 µM (≈ 15.9 µg/mL)
S. epidermidis; S. epidermidis 14069
  IC50: 31 ± 2 µM
S. epidermidis; S. epidermidis 14085
  IC50: 26.3 ± 0.8 µM
S. epidermidis; S. epidermidis 14093
  IC50: < 1.56 µM
S. epidermidis; S. epidermidis 14134
  IC50: 44 ± 1 µM
S. epidermidis; S. epidermidis 14143
  IC50: 80 ± 7 µM
S. epidermidis; read-out: Minimum Inhibitory Concentration (MIC), S. epidermidis 14069
  MIC: > 200 µM
S. epidermidis; read-out: Minimum Inhibitory Concentration (MIC), S. epidermidis 14085
  MIC: > 200 µM
S. epidermidis; read-out: Minimum Inhibitory Concentration (MIC), S. epidermidis 14093
  MIC: 77.1 µM (≈ 25.5 µg/mL)
S. epidermidis; read-out: Minimum Inhibitory Concentration (MIC), S. epidermidis 14134
  MIC: > 200 µM
S. epidermidis; read-out: Minimum Inhibitory Concentration (MIC), S. epidermidis 14143
  MIC: > 200 µM
Corynebacterium jeikeium; read-out: IC50
  IC50: 1.42 ± 0.07 µM
Corynebacterium jeikeium; [3]
  MIC: 16.4 µM (≈ 5.43 µg/mL)
S. aureus; S. aureus 14108
  IC50: < 1.56 µM
S. aureus; S. aureus 14118
  IC50: < 1.56 µM
S. aureus; S. aureus 14154
  IC50: < 1.56 µM
S. aureus; [4]
  IC50: < 1.56 µM
  MIC: 87.6 µM (≈ 29 µg/mL)
S. aureus; Staphylococcus aureus, S. aureus 14108
  MIC: 66.8 µM (≈ 22.1 µg/mL)
S. aureus; Staphylococcus aureus, S. aureus 14118
  MIC: 65.1 µM (≈ 21.6 µg/mL)
S. aureus; Staphylococcus aureus, S. aureus 14154
  MIC: 25.1 µM (≈ 8.32 µg/mL)
Streptococcus agalactiae; Strep. agalactiae 14151
  Minimum Inhibitory Concentration (MIC): (>200) μM
Streptococcus agalactiae; Strep. agalactiae 14153
  Minimum Inhibitory Concentration (MIC): (>200) μM
Streptococcus agalactiae; Streptococcus agalactiae, Strep. agalactiae 14150
  IC50: 138 ± 10 µM
Streptococcus agalactiae; Streptococcus agalactiae, Strep. agalactiae 14150, read-out: Minimum Inhibitory Concentration (MIC)
  MIC: > 200 µM
Streptococcus agalactiae; Streptococcus agalactiae, Strep. agalactiae 14151
  IC50: > 200 µM
Streptococcus agalactiae; Streptococcus agalactiae, Strep. agalactiae 14153
  IC50: 190 ± 10 µM
[2]; MRSA 1
  Minimum Inhibitory Concentration (MIC): (>186) μM
[2]; MRSA 3
  Minimum Inhibitory Concentration (MIC): (>186) μM
[2]; MRSA 4
  Minimum Inhibitory Concentration (MIC): (>186) μM
[2]; MRSA 5
  Minimum Inhibitory Concentration (MIC): (>186) μM
[2]; MRSA 6
  Minimum Inhibitory Concentration (MIC): (>186) μM
[2]; MRSA 7
  Minimum Inhibitory Concentration (MIC): (>186) μM
[2]; MRSA 8
  Minimum Inhibitory Concentration (MIC): (>186) μM
[2]; MRSA 9
  Minimum Inhibitory Concentration (MIC): (>186) μM
[2]; MRSA 10
  Minimum Inhibitory Concentration (MIC): (>186) μM
[2]; Staphylococcus aureus, MRSA, MRSA1, read-out: IC50
  IC50: 102 ± 6 µM
[2]; Staphylococcus aureus, MRSA, MRSA2, read-out: IC50
  IC50: 156 ± 11 µM
[2]; Staphylococcus aureus, MRSA, MRSA2, read-out: Minimum Inhibitory Concentration (MIC)
  MIC: > 186 µM
[2]; Staphylococcus aureus, MRSA, MRSA3, read-out: IC50
  IC50: > 186 µM
[2]; Staphylococcus aureus, MRSA, MRSA4, read-out: IC50
  IC50: 134 ± 7 µM
[2]; Staphylococcus aureus, MRSA, MRSA5, read-out: IC50
  IC50: 109 ± 4 µM
[2]; Staphylococcus aureus, MRSA, MRSA6, read-out: IC50
  IC50: 131 ± 9 µM
[2]; Staphylococcus aureus, MRSA, MRSA7, read-out: IC50
  IC50: 128 ± 9 µM
[2]; Staphylococcus aureus, MRSA, MRSA8, read-out: IC50
  IC50: 119 ± 9 µM
[2]; Staphylococcus aureus, MRSA, MRSA9, read-out: IC50
  IC50: 106 ± 11 µM
[2]; Staphylococcus aureus, MRSA, MRSA10, read-out: IC50
  IC50: 122 ± 16 µM
[2]; Staphylococcus aureus, MRSA, all MRSA strains, read-out: IC50 values against the MRSA strains
  IC50: 100 to 150 µM
Enterococcus faecalis; Ent. Faecalis 14115
  Minimum Inhibitory Concentration (MIC): (>200) μM
Enterococcus faecalis; Enterococcus faecalis, Ent. Faecalis 14078
  IC50: 15 ± 2 µM
Enterococcus faecalis; Enterococcus faecalis, Ent. Faecalis 14078, read-out: Minimum Inhibitory Concentration (MIC)
  MIC: > 200 µM
Enterococcus faecalis; Enterococcus faecalis, Ent. Faecalis 14115
  IC50: > 200 µM
Enterococcus faecalis; in words
  activity against Enterococcus faecalis 14115 strain: not active
Streptococcus pyogenes; Strep. pyogenes 14149
  IC50: 43 ± 2 µM
  MIC: 169 µM (≈ 56 µg/mL)
Streptococcus pyogenes; Strep. pyogenes 14152
  IC50: 0.6 ± 1 µM
  MIC: 37.4 µM (≈ 12.4 µg/mL)

— patent publication US9499509B2, “Dihydrochalcone derivatives and their use as antibiotic agents” (UNIVERSITÉ DU QUÉBEC À CHICOUTIMI, priority 2012, dated 2016)
